Test results taken from ChEMBL document CHEMBL3045121, “Synthesis of an Antifungal Naphthoquinone Isolated fromRhinacanthus nasutus(Acanthaceae)” (1995).
Values after ≈ are worked out from the molar mass of the structure shown.

System: Pyricularia oryzae
Assay: Inhibition of spore germination of Magnaporthe oryzae
Assay type: functional
Conditions: read-out: ED50 (the source's name)

Compound | EC50 [µg/mL]
C/C=C(\C)CC/C=C(\C)C(=O)OCC(C)(C)CC1=C(O)C(=O)c2ccccc2C1=O [RHINACANTHIN C] | 0.2 (≈ 0.487 µM)
CC1(C)COC2=C(C1)C(=O)C(=O)c1ccccc12 [RHINACANTHONE] | 0.4 (≈ 1.65 µM)
